Source: ChEMBL document CHEMBL5360523, “Ligand- and structure-based identification of novel CDK9 inhibitors for the potential treatment of leukemia” (Bioorg Med Chem, 2022)
Active and inactive are the calls of the source. No cut-off for these calls is given here.

What was measured:
MOLM-13 [1] = assay: Induction of apoptosis in human MOLM-13 cells assessed as early apoptotic cells at 2.5 uM incubated for 24 hrs by Annexin V-FITC and propidium iodide staining based flow cytometry analysis (reference value: 2.86%); type: functional
MOLM-13 [2] = assay: Induction of apoptosis in human MOLM-13 cells assessed as viable cells at 5 uM incubated for 24 hrs by Annexin V-FITC and propidium iodide staining based flow cytometry analysis (reference value: 92.7%); type: functional; conditions: read-out: Activity
MOLM-13 [3] = assay: Induction of apoptosis in human MOLM-13 cells assessed as late apoptotic cells at 10 uM incubated for 24 hrs by Annexin V-FITC and propidium iodide staining based flow cytometry analysis (reference value: 3.65%); type: functional
MOLM-13 [4] = assay: Induction of apoptosis in human MOLM-13 cells incubated for 24 hrs by Annexin V-FITC and propidium iodide staining based flow cytometry analysis; type: functional, cell-based; conditions: dose 2.5-10 µM
MOLM-13 [5] = assay: Induction of apoptosis in human MOLM-13 cells assessed as late apoptotic cells at 5 uM incubated for 24 hrs by Annexin V-FITC and propidium iodide staining based flow cytometry analysis (reference value: 3.65%); type: functional
CNE-2 = assay: Antiproliferative activity against human CNE-2 cells assessed as inhibition of cell viability incubated for 48 hrs by CCK8 method; type: functional, cell-based; conditions: CNE-2, 48 h
[6] = molecular target: T1, Cyclin-dependent kinase 9 (Homo sapiens, UniProt P50750); assay: Inhibition of CDK9 (unknown origin) at 20 uM incubated for 10 mins relative to control
[7] = Stability of the compound in artificial gastric fluid assessed as compound remaining measured upto 8 hrs by HPLC analysis; type: ADME; conditions: read-out: Stability
[8] = molecular target: T1, Cyclin-dependent kinase 9; assay: Inhibition of CDK9 in human MOLM-13 cells assessed as suppression of p-RNAP II CTD (Ser2 residue) phosphorylation incubated for 24 hrs by Western blot analysis; type: cell-based; conditions: dose 10-25 µM
[9] = Stability in rat liver microsomes assessed as compound remaining measured upto 3 hrs by HPLC analysis; type: ADME, Microsome; conditions: read-out: Stability
MOLM-13 [10] = assay: Induction of apoptosis in human MOLM-13 cells assessed as necrotic cells at 2.5 uM incubated for 24 hrs by Annexin V-FITC and propidium iodide staining based flow cytometry analysis (reference value: 0.84%); type: functional
MCF7 = assay: Antiproliferative activity against human MCF7 cells assessed as inhibition of cell viability incubated for 48 hrs by CCK8 method; type: functional, cell-based; conditions: MCF7, 48 h
HepG2 = assay: Antiproliferative activity against human HepG2 cells assessed as inhibition of cell viability incubated for 48 hrs by CCK8 method; type: functional, cell-based; conditions: HepG2, 48 h
MOLM-13 [11] = assay: Antiproliferative activity against human MOLM-13 cells assessed as inhibition of cell viability incubated for 48 hrs by CCK8 method; type: functional, cell-based; conditions: MOLM-13, 48 h
MDA-MB-231 = assay: Antiproliferative activity against human MDA-MB-231 cells assessed as inhibition of cell viability incubated for 48 hrs by CCK8 method; type: functional, cell-based; conditions: MDA-MB-231, 48 h
[12] = Stability of the compound in artificial intestinal fluid assessed as compound remaining measured upto 8 hrs by HPLC analysis; type: ADME; conditions: read-out: Stability
MOLM-13 [13] = assay: Induction of apoptosis in human MOLM-13 cells assessed as early apoptotic cells at 10 uM incubated for 24 hrs by Annexin V-FITC and propidium iodide staining based flow cytometry analysis (reference value: 2.86%); type: functional
MOLM-13 [14] = assay: Induction of apoptosis in human MOLM-13 cells assessed as viable cells at 2.5 uM incubated for 24 hrs by Annexin V-FITC and propidium iodide staining based flow cytometry analysis (reference value: 92.7%); type: functional; conditions: read-out: Activity
[15] = molecular target: T1, Cyclin-dependent kinase 9; assay: Inhibition of CDK9 in human MOLM-13 cells assessed as increase in cleaved PARP level at 10 to 25 uM incubated for 24 hrs by Western blot analysis; type: cell-based; conditions: dose 10-25 µM
A549 = assay: Antiproliferative activity against human A549 cells assessed as inhibition of cell viability incubated for 48 hrs by CCK8 method; type: functional, cell-based; conditions: A549, 48 h
HeLa = assay: Antiproliferative activity against human HeLa cells assessed as inhibition of cell viability incubated for 48 hrs by CCK8 method; type: functional, cell-based
[16] = Stability in human plasma assessed as compound remaining measured upto 4 hrs by HPLC analysis; type: ADME, cell-free; conditions: read-out: Stability
MOLM-13 [17] = assay: Induction of apoptosis in human MOLM-13 cells assessed as late apoptotic cells at 2.5 uM incubated for 24 hrs by Annexin V-FITC and propidium iodide staining based flow cytometry analysis (reference value: 3.65%); type: functional
MOLM-13 [18] = assay: Induction of apoptosis in human MOLM-13 cells assessed as necrotic cells at 5 uM incubated for 24 hrs by Annexin V-FITC and propidium iodide staining based flow cytometry analysis (reference value: 0.84%); type: functional
MOLM-13 [19] = assay: Induction of apoptosis in human MOLM-13 cells assessed as necrotic cells at 10 uM incubated for 24 hrs by Annexin V-FITC and propidium iodide staining based flow cytometry analysis (reference value: 0.84%); type: functional
MOLM-13 [20] = assay: Induction of apoptosis in human MOLM-13 cells assessed as early apoptotic cells at 5 uM incubated for 24 hrs by Annexin V-FITC and propidium iodide staining based flow cytometry analysis (reference value: 2.86%); type: functional
HCT-116 = assay: Antiproliferative activity against human HCT-116 cells assessed as inhibition of cell viability incubated for 48 hrs by CCK8 method; type: functional, cell-based; conditions: HCT-116, 48 h
[21] = molecular target: T1, Cyclin-dependent kinase 9; assay: Inhibition of CDK9 (unknown origin) incubated for 10 mins
[22] = molecular target: T1, Cyclin-dependent kinase 9; assay: Inhibition of CDK9 in human MOLM-13 cells assessed as decrease in Mcl-1 expression incubated for 24 hrs by Western blot analysis; type: cell-based; conditions: dose 10-25 µM
MOLM-13 [23] = assay: Induction of apoptosis in human MOLM-13 cells assessed as viable cells at 10 uM incubated for 24 hrs by Annexin V-FITC and propidium iodide staining based flow cytometry analysis (reference value: 92.7%); type: functional; conditions: read-out: Activity

T1 sequence (P50750 whole entry): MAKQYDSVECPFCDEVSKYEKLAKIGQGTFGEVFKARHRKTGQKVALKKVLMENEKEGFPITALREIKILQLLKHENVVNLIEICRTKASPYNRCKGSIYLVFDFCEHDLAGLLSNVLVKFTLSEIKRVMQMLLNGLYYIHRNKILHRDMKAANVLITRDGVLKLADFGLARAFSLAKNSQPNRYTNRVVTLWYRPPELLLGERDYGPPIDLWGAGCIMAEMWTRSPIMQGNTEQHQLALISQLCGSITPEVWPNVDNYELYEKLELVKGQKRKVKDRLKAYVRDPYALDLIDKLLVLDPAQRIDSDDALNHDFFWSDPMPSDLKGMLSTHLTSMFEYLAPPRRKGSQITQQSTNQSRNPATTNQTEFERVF

| Compound | inhibition [6] [%] | remaining at 8 h [7] [%] | remaining at 3 h [9] [%] | IC50 (MCF7) [µM] | IC50 (HepG2) [µM] | IC50 (MOLM-13 [11]) [µM] | IC50 (MDA-MB-231) [µM] | remaining at 8 h [12] [%] | IC50 (A549) [µM] | IC50 (HeLa) [µM] | remaining at 4 h [16] [%] | IC50 (HCT-116) [µM] | IC50 [21] [µM] | IC50 (CNE-2) [µM] | further results |
| --- | --- | --- | --- | --- | --- | --- | --- | --- | --- | --- | --- | --- | --- | --- | --- |
| CN1CC[C@H](c2c(O)cc(O)c3c(=O)cc(-c4ccccc4Cl)oc23)[C@H](O)C1 [ALVOCIDIB] | – | – | – | 0.71 | 0.56 | 0.07 | 0.06 | – | 0.1 | 0.15 | – | 0.03 | – | 0.12 | Activity (MOLM-13 [3]): 7.81%; Activity (MOLM-13 [13]): 25.5%; Activity (MOLM-13 [19]): 22.3%; viability at 10 µM (MOLM-13 [23]): 44.5% |
| CCNc1nc(N)nc(-c2cc(Cl)ccc2O)n1 | 93.7 | – | – | 18.9 | 49.2 | 15.2 | 21.2 | – | > 50 | 7.38 | – | 26.6 | 0.335 | 30.4 | – |
| CCCCNc1nc(N)nc(-c2cc(Cl)ccc2O)n1 | 93.6 | – | – | 11.3 | 40.9 | 13.5 | 16 | – | 19.2 | 13.7 | – | 27.2 | 0.214 | 17 | – |

Now from value to molecule, other results behind:

| inhibition [6] [%] | remaining at 8 h [7] [%] | remaining at 3 h [9] [%] | IC50 (MCF7) [µM] | IC50 (HepG2) [µM] | IC50 (MOLM-13 [11]) [µM] | IC50 (MDA-MB-231) [µM] | remaining at 8 h [12] [%] | IC50 (A549) [µM] | IC50 (HeLa) [µM] | remaining at 4 h [16] [%] | IC50 (HCT-116) [µM] | IC50 [21] [µM] | Compound | IC50 (CNE-2) [µM] | further results |
| --- | --- | --- | --- | --- | --- | --- | --- | --- | --- | --- | --- | --- | --- | --- | --- |
| 88.4 | > 90 | > 90 | 23.5 | > 50 | 3.92 | 11.7 | > 90 | > 50 | 2.53 | > 90 | 22.2 | 0.295 | Nc1nc(Nc2ccccc2)nc(-c2cc(Cl)ccc2O)n1 | 34.5 | Activity (MOLM-13 [1]): 3.2%; viability at 5 µM (MOLM-13 [2]): 90.9%; Activity (MOLM-13 [3]): 5.43%; Activity (MOLM-13 [4]): Dose-Dependent Effect; Activity (MOLM-13 [5]): 3.96%; inhibition [8]: Dose-Dependent Effect; Activity (MOLM-13 [10]): 0.77%; Activity (MOLM-13 [13]): 6.13%; viability at 2.5 µM (MOLM-13 [14]): 92.1%; inhibition [15]: Active; Activity (MOLM-13 [17]): 3.88%; Activity (MOLM-13 [18]): 1.12%; Activity (MOLM-13 [19]): 1.38%; Activity (MOLM-13 [20]): 3.97%; inhibition [22]: Dose-Dependent Effect; viability at 10 µM (MOLM-13 [23]): 87.1% |
| 22.7 | – | – | 20.9 | 19.8 | 2.52 | 28.2 | – | > 50 | 29.4 | – | 15.6 | – | O=C(NCCc1c[nH]c2ccc(Cl)cc12)c1cc(-c2cccnc2)n[nH]1 | 17.1 | – |
| 76.4 | > 90 | > 90 | 6.14 | > 50 | 11.8 | 8.34 | > 90 | 15.3 | 6.61 | > 90 | 3.22 | 0.219 | O=C(Cn1cc(Br)c(=O)n(CC(=O)Nc2ccc(Br)cn2)c1=O)Nc1ccc(Br)cn1 | 28.3 | – |
| 92.2 | > 90 | > 90 | 29 | 29 | 4.58 | 14.5 | > 90 | 28.2 | 25.1 | > 90 | > 50 | 0.504 | Nc1nc(NCCc2ccccc2)nc(-c2cc(Cl)ccc2O)n1 | > 50 | – |
